The values below are quoted from earlier work in US9827197B2, “Diclofenac formulations and methods of use” (APR Applied Pharma Research s.a., priority 2005, dated 2017).

SMILES strings stand for the structures.

The conditions of series [1]: commercially available sugar coated tablets.
The conditions of series [2]: water at 25 degrees Celsius.

Regarding `O=C(O)Cc1ccccc1Nc1c(Cl)cccc1Cl` [Diclofenac potassium], in series [1], the terminal half life result was “about 1.9 hours”.

`OC[C@@H](O)[C@@H](O)[C@H](O)[C@H](O)CO` [mannitol]: in series [2], the solubility in water is 22 g/100 ml.
